We go through one compound from paper PMC7486443, “Generation of Phenothiazine with Potent Anti-TLK1 Activity for Prostate Cancer Therapy” (iScience, 2020).

Targets include GRK2 (Homo sapiens, UniProt P25098); HIPK4 (Homo sapiens, UniProt Q8NE63); MUSK (Homo sapiens, UniProt O15146); DDR2 (Homo sapiens, UniProt Q16832); EGFR (Homo sapiens, UniProt P00533); PIK3CA(E545A) (Homo sapiens, UniProt P42336, E545A); MAP3K2 (Homo sapiens, UniProt Q9Y2U5); FRK (Homo sapiens, UniProt P42685); LIMK1 (Homo sapiens, UniProt P53667); AXL (Homo sapiens, UniProt P30530); ERBB3 (Homo sapiens, UniProt P21860).

What all share (test): biochemical
Common to all, as to parameters: DiscoverX KINOMEscan scanMAX competition binding panel, single concentration, percent of control; remaining binding: dose or concentration left out as unconfirmed
What all share (conditions): KINOMEscan binding, percent of control; read-out: Table S4_SCANMAX REPORT - related to Fig. 1 / Percent Control

A further assay addresses T1, DRAK1 (Homo sapiens, UniProt Q9UEE5).
T1 construct: gene STK17A

The target of assay [1] is T2, ABL1(T315I)-nonphosphorylated (Homo sapiens, UniProt P00519, T315I).
T2 construct: nonphosphorylated

The next assay concerns the target T3, ZAK (Homo sapiens, UniProt Q9NYL2).
T3 construct: gene MAP3K20

The target of assay [2] is T4, RSK4(Kin.Dom.1-N-terminal) (Homo sapiens, UniProt Q9UK32).
T4 construct: gene RPS6KA6; Kin.Dom.1-N-terminal
T4 sequence (Q9UK32 whole entry): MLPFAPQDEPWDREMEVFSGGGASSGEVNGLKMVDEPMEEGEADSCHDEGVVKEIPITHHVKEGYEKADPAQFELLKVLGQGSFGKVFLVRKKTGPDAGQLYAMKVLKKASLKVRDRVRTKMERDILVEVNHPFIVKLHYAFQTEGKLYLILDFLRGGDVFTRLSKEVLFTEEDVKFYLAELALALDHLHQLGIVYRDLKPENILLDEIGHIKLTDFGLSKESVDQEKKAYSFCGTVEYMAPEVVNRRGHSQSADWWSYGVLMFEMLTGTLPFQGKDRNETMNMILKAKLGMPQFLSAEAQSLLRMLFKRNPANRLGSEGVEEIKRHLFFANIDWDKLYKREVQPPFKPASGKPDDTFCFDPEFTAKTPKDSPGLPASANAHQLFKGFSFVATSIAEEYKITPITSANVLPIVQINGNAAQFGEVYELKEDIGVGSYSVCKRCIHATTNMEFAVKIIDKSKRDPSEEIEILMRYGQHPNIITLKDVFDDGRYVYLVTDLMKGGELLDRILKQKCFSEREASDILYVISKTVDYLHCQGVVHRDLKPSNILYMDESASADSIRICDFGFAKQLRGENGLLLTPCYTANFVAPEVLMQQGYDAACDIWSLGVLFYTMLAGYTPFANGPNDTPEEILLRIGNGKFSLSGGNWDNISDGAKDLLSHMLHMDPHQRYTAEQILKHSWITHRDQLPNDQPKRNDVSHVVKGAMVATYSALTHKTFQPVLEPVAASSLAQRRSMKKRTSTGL

Assay [3] addresses T5, ABL1(F317L)-nonphosphorylated (Homo sapiens, UniProt P00519, F317L).
T5 construct: nonphosphorylated

Another assay has as its target T6, QSK (Homo sapiens, UniProt Q9Y2K2).
T6 construct: gene SIK3

For the next assay, the target named is T7, AMPK-alpha1 (Homo sapiens, UniProt Q13131).
T7 construct: gene PRKAA1

T3 sequence (Q9NYL2 whole entry): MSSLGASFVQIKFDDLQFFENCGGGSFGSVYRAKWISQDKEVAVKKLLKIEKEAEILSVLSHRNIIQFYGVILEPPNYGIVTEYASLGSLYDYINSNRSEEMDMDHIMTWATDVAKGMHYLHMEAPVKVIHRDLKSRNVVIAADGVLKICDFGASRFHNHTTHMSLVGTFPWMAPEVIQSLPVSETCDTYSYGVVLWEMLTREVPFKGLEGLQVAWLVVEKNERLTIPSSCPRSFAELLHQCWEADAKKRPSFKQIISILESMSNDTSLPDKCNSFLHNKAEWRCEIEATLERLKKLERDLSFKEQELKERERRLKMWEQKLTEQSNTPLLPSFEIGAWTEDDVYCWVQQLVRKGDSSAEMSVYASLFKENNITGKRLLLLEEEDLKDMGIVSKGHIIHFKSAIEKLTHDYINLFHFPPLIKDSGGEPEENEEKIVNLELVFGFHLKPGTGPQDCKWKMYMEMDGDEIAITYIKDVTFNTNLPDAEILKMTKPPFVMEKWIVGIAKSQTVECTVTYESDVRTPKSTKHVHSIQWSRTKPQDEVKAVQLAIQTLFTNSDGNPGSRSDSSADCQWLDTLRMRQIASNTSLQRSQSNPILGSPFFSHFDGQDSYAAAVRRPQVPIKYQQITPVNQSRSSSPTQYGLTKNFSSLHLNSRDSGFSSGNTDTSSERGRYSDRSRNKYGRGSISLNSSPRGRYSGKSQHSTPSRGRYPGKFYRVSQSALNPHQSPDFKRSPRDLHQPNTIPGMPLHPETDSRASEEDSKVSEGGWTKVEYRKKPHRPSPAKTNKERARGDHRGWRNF
Sequence of FRK (P42685 whole entry): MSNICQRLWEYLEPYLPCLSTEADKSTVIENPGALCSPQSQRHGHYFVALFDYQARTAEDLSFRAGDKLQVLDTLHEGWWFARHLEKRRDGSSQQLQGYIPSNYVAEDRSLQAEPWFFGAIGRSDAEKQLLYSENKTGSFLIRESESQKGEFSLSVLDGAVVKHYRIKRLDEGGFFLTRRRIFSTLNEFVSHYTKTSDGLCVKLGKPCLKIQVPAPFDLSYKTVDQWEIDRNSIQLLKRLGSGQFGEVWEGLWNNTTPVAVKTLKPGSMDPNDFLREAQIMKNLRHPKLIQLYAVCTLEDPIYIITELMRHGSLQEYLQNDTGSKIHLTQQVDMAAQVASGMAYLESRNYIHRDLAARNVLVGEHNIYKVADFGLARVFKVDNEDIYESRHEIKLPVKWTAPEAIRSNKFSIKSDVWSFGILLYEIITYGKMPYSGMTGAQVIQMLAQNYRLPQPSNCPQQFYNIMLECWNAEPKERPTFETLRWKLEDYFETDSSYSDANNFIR
Sequence of AXL (P30530 whole entry): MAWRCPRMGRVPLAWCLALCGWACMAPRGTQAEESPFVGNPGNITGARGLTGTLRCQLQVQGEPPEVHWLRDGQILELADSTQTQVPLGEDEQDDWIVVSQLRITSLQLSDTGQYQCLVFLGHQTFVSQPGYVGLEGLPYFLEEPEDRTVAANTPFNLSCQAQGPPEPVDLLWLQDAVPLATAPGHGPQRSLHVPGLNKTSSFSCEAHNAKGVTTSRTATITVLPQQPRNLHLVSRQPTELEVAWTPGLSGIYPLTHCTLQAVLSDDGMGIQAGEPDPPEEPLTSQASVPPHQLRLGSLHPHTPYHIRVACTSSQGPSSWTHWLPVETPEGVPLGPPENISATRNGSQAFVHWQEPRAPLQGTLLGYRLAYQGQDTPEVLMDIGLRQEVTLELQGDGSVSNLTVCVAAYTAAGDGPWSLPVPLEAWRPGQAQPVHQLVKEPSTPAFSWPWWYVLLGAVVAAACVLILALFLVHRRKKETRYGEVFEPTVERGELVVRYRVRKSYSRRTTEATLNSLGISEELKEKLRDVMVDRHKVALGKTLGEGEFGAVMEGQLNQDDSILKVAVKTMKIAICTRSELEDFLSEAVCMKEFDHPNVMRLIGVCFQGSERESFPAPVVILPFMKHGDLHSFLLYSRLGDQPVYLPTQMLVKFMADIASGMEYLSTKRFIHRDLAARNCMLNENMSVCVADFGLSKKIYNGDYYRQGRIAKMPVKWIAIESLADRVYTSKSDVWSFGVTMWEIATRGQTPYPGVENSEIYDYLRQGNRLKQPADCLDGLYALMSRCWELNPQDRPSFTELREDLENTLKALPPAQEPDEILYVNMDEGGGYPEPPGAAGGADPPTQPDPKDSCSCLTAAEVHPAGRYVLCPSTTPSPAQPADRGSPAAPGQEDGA
Sequence of PIK3CA(E545A) (P42336 whole entry E545A): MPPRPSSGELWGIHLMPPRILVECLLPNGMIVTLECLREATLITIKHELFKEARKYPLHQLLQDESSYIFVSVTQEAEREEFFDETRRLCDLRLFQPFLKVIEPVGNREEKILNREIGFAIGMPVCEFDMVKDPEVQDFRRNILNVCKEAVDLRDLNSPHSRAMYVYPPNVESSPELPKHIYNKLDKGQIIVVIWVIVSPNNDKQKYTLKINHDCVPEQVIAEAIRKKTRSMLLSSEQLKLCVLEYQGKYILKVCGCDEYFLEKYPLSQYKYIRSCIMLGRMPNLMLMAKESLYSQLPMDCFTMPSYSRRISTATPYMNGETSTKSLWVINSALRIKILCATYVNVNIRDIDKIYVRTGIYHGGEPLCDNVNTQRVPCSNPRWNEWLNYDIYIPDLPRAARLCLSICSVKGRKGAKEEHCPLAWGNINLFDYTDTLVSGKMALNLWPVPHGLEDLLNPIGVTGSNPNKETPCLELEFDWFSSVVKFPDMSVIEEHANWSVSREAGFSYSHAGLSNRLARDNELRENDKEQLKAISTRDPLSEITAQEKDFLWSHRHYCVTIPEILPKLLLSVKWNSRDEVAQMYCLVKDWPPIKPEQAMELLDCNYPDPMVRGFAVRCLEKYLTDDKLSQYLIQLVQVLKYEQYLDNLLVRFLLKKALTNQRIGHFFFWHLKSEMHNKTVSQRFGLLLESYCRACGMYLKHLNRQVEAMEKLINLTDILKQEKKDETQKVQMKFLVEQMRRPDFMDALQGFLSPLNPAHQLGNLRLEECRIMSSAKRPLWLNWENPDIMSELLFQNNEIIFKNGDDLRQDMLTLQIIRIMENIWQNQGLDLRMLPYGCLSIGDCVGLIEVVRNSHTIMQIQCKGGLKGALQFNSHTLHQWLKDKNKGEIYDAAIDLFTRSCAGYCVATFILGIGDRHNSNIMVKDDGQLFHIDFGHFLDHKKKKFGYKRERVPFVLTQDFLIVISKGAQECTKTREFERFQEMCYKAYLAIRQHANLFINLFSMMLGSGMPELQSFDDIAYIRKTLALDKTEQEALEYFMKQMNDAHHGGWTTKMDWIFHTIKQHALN
Sequence of GRK2 (P25098 whole entry): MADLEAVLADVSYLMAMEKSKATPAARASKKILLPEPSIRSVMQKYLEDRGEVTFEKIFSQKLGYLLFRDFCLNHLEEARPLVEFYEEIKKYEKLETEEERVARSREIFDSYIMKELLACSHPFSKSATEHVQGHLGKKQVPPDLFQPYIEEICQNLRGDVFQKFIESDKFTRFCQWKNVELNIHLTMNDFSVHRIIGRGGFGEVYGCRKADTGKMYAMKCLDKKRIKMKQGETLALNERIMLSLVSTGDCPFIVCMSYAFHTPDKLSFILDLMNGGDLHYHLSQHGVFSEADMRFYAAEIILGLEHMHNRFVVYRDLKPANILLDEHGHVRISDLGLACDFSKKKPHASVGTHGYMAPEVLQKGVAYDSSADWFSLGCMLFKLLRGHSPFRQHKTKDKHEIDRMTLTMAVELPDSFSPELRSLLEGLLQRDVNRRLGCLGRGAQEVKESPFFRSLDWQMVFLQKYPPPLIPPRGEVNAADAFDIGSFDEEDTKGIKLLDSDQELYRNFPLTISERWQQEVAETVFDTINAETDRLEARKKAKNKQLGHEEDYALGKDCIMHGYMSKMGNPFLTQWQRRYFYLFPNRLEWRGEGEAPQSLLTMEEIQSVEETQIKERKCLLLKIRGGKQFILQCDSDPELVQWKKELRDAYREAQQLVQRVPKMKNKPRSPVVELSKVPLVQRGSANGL

In the case of `c1ccc2c(c1)Sc1ccccc1N2CCN1CCOCC1` [J54], the remaining binding on GRK2 was 93%; on HIPK4, 90%; on MUSK, 100%; at DRAK1, 89%; in [1], 94%; at ZAK, 85%. The remaining binding on DDR2 came to 88%; on EGFR, 92%; on PIK3CA(E545A), 97%; on MAP3K2, 100%; in assay [2], 100%; at FRK it was 100%. For the same compound, the remaining binding is 98% in [3]; 100% at QSK; 100% on AMPK-alpha1; 100% on LIMK1; 99% at AXL; 78% at ERBB3.
